Laboratory results from US20240390352A1, “PHARMACEUTICAL COMPOSITION FOR PREVENTING OR TREATING CANCER COMPRISING CARNITINE ACYLCARNITINE CARRIER INHIBITOR AND ANTITUMOR AGENT” (NEW CANCER CURE - BIO CO.,LTD., priority 2021, published 2024).

Experiments:
Format in all cases: cell-based
[1] = tested on: renal cell carcinoma cell lines CAKI-1 and ACHN cells; experiment: Synergistic effect of omeprazole and anticancer drug, renal cancer cell lines; conditions: anticancer drug combined with omeprazole (KN510) versus each treatment alone
[2] = tested on: pancreatic ductal adenocarcinoma (PDAC) cell lines, MIA PaCa-2 cells and PANC-1 cells; experiment: Synergistic effect of omeprazole and anticancer drug, pancreatic cancer cell lines; conditions: anticancer drug combined with omeprazole (KN510) versus each treatment alone
[3] = tested on: melanoma cell lines UACC62 cells and UACC257 cells; experiment: Synergistic effect of omeprazole and anticancer drug, melanoma cell lines; conditions: anticancer drug combined with omeprazole (KN510) versus each treatment alone
[4] = tested on: prostate cancer cells, PC-3 cells and DU-145 cells; experiment: Synergistic effect of omeprazole and anticancer drug, prostate cancer cells; conditions: anticancer drug combined with omeprazole (KN510) versus each treatment alone
HCT-116 cells = experiment: SRB assay cancer cell growth rate, HCT-116; conditions: relative to control (100%), 48 hours, KN510 200 μM, irinotecan 2.5 μM, 5-FU 5 μM, gemcitabine 2.5 μM, paclitaxel 10 nM, cisplatin 1 μM, alone or KN510 + anticancer drug
A549 cells = experiment: SRB assay cancer cell growth rate, A549; conditions: relative to control (100%), 48 hours, KN510 200 μM, irinotecan 2.5 μM, 5-FU 5 μM, gemcitabine 2.5 μM, paclitaxel 10 nM, cisplatin 1 μM, alone or KN510 + anticancer drug
[5] = tested on: glioblastoma (GBM) cell lines, U-87 MG cells and T87G cells; experiment: Synergistic effect of omeprazole and anticancer drug, glioblastoma cell lines; conditions: anticancer drug combined with omeprazole (KN510) versus each treatment alone
[6] = tested on: MKN-28 cells and AGS cells, stomach cancer cells; experiment: Synergistic effect of omeprazole and anticancer drug, stomach cancer cells; conditions: anticancer drug combined with omeprazole (KN510) versus each treatment alone
[7] = tested on: ovarian cancer cells, OVCAR-8 cells and SK-OV-3 cells; experiment: Synergistic effect of omeprazole and anticancer drug, ovarian cancer cells; conditions: anticancer drug combined with omeprazole (KN510) versus each treatment alone
[8] = tested on: A549 and H23 lung cancer cells; experiment: Synergistic effect of omeprazole and anticancer drug, lung cancer cells; conditions: anticancer drug combined with omeprazole (KN510) versus each treatment alone
UACC257 cells = experiment: SRB assay cancer cell growth rate, UACC257; conditions: relative to control (100%), 48 hours, KN510 200 μM, irinotecan 2.5 μM, 5-FU 5 μM, gemcitabine 2.5 μM, paclitaxel 10 nM, cisplatin 1 μM, alone or KN510 + anticancer drug
K562 cells = experiment: SRB assay cancer cell growth rate, K562; conditions: relative to control (100%), 48 hours, KN510 200 μM, irinotecan 2.5 μM, 5-FU 5 μM, gemcitabine 2.5 μM, paclitaxel 10 nM, cisplatin 1 μM, alone or KN510 + anticancer drug
ACHN cells = experiment: SRB assay cancer cell growth rate, ACHN; conditions: relative to control (100%), 48 hours, KN510 200 μM, irinotecan 2.5 μM, 5-FU 5 μM, gemcitabine 2.5 μM, paclitaxel 10 nM, cisplatin 1 μM, alone or KN510 + anticancer drug
[9] = tested on: leukemia cells, SR cells and K562 cells; experiment: Synergistic effect of omeprazole and anticancer drug, leukemia cells; conditions: anticancer drug combined with omeprazole (KN510) versus each treatment alone
SR cells = experiment: SRB assay cancer cell growth rate, SR; conditions: relative to control (100%), 48 hours, KN510 200 μM, irinotecan 2.5 μM, 5-FU 5 μM, gemcitabine 2.5 μM, paclitaxel 10 nM, cisplatin 1 μM, alone or KN510 + anticancer drug
UACC62 cells = experiment: SRB assay cancer cell growth rate, UACC62; conditions: relative to control (100%), 48 hours, KN510 200 μM, irinotecan 2.5 μM, 5-FU 5 μM, gemcitabine 2.5 μM, paclitaxel 10 nM, cisplatin 1 μM, alone or KN510 + anticancer drug
[10] = tested on: breast cancer cells, MDA-MB-231 cells and MCF-7 cells; experiment: Synergistic effect of omeprazole and anticancer drug, breast cancer cells; conditions: anticancer drug combined with omeprazole (KN510) versus each treatment alone
[11] = tested on: colon cancer cell lines HCT-116 cells and COLO-205 cells; experiment: Synergistic effect of omeprazole and anticancer drug, colon cancer cell lines; conditions: anticancer drug combined with omeprazole (KN510) versus each treatment alone
OVCAR-8 cells = experiment: SRB assay cancer cell growth rate, OVCAR-8; conditions: relative to control (100%), 48 hours, KN510 200 μM, irinotecan 2.5 μM, 5-FU 5 μM, gemcitabine 2.5 μM, paclitaxel 10 nM, cisplatin 1 μM, alone or KN510 + anticancer drug
PC-3 cells = experiment: SRB assay cancer cell growth rate, PC-3; conditions: relative to control (100%), 48 hours, KN510 200 μM, irinotecan 2.5 μM, 5-FU 5 μM, gemcitabine 2.5 μM, paclitaxel 10 nM, cisplatin 1 μM, alone or KN510 + anticancer drug
[12] = tested on: liver cancer cell lines SK-HEP-1 cells and Huh-7 cells; experiment: Synergistic effect of omeprazole and anticancer drug, liver cancer cell lines; conditions: anticancer drug combined with omeprazole (KN510) versus each treatment alone
CAKI-1 cells = experiment: SRB assay cancer cell growth rate, CAKI-1; conditions: relative to control (100%), 48 hours, KN510 200 μM, irinotecan 2.5 μM, 5-FU 5 μM, gemcitabine 2.5 μM, paclitaxel 10 nM, cisplatin 1 μM, alone or KN510 + anticancer drug

Row | Structure (SMILES) | synergistic effect of omeprazole and an anticancer drug in combination, renal cell carcinoma [1] | synergistic effect of omeprazole and an anticancer drug in combination, pancreatic cancer (PDAC) [2] | synergistic effect of omeprazole and an anticancer drug in combination, melanoma [3] | synergistic effect of omeprazole and an anticancer drug in combination, prostate cancer [4] | HCT-116 growth rate average (%) (HCT-116 cells) | A549 growth rate average (%) (A549 cells) | synergistic effect of omeprazole and an anticancer drug in combination, glioblastoma (GBM) [5] | synergistic effect of omeprazole and an anticancer drug in combination, stomach cancer [6] | synergistic effect of omeprazole and an anticancer drug in combination, ovarian cancer [7] | synergistic effect of omeprazole and an anticancer drug in combination, lung cancer [8] | UACC257 growth rate average (%) (UACC257 cells) | K562 growth rate average (%) (K562 cells) | ACHN growth rate average (%) (ACHN cells) | synergistic effect of omeprazole and an anticancer drug in combination, leukemia [9] | SR growth rate average (%) (SR cells) | UACC62 growth rate average (%) (UACC62 cells) | synergistic effect of omeprazole and an anticancer drug in combination, breast cancer [10] | synergistic effect of omeprazole and an anticancer drug in combination, colon cancer [11] | OVCAR-8 growth rate average (%) (OVCAR-8 cells) | PC-3 growth rate average (%) (PC-3 cells) | other results
1 | CC(=O)O[C@H]1C(=O)[C@@]2(C)[C@H]([C@H](OC(=O)c3ccccc3)[C@]3(O)C[C@H](OC(=O)[C@H](O)[C@@H](NC(=O)c4ccccc4)c4ccccc4)C(C)=C1C3(C)C)[C@]1(OC(C)=O)CO[C@@H]1C[C@@H]2O [Paclitaxel] | Negative effect | Positive effect | Positive effect | Negative effect | 17.70 | 22.67 | Positive effect | Positive effect | Negative effect | Positive effect | 35.43 | 59.27 | 0.91 | Positive effect | 94.83 | 48.36 | Negative effect | Positive effect | 12.64 | 32.49 | synergistic effect of omeprazole and an anticancer drug in combination, pancreatic cancer (PDAC) ([2]; listed as paclitaxel): significantly inhibited; synergistic effect of omeprazole and an anticancer drug in combination, melanoma ([3]; listed as paclitaxel): significantly inhibited; synergistic effect of omeprazole and an anticancer drug in combination, glioblastoma (GBM) ([5]; listed as paclitaxel): significantly inhibited; synergistic effect of omeprazole and an anticancer drug in combination, stomach cancer ([6]; listed as paclitaxel): significantly inhibited; synergistic effect of omeprazole and an anticancer drug in combination, lung cancer ([8]; listed as paclitaxel): significantly inhibited; synergistic effect of omeprazole and an anticancer drug in combination, leukemia ([9]; listed as paclitaxel): significantly inhibited; synergistic effect of omeprazole and an anticancer drug in combination, colon cancer ([11]; listed as paclitaxel): significantly inhibited; synergistic effect of omeprazole and an anticancer drug in combination, liver cancer [12]: Negative effect; CAKI-1 growth rate average (%) (CAKI-1 cells): 17.70%
2 | CCc1c2c(nc3ccc(OC(=O)N4CCC(N5CCCCC5)CC4)cc13)-c1cc3c(c(=O)n1C2)COC(=O)[C@]3(O)CC [Irinotecan] | Positive effect | Positive effect | Positive effect | Negative effect | 41.85 | 16.54 | Positive effect | Negative effect | Negative effect | Negative effect | 21.87 | 46.54 | 42.20 | Positive effect | 6.26 | −35.63 | Positive effect | Positive effect | 4.70 | 33.84 | synergistic effect of omeprazole and an anticancer drug in combination, renal cell carcinoma ([1]; listed as irinotecan): significantly inhibited; synergistic effect of omeprazole and an anticancer drug in combination, pancreatic cancer (PDAC) ([2]; listed as irinotecan): significantly inhibited; synergistic effect of omeprazole and an anticancer drug in combination, melanoma ([3]; listed as irinotecan): significantly inhibited; synergistic effect of omeprazole and an anticancer drug in combination, glioblastoma (GBM) ([5]; listed as irinotecan): significantly inhibited; synergistic effect of omeprazole and an anticancer drug in combination, leukemia ([9]; listed as irinotecan): significantly inhibited; synergistic effect of omeprazole and an anticancer drug in combination, breast cancer ([10]; listed as irinotecan): significantly inhibited; synergistic effect of omeprazole and an anticancer drug in combination, colon cancer ([11]; listed as irinotecan): significantly inhibited; synergistic effect of omeprazole and an anticancer drug in combination, liver cancer [12]: Positive effect; synergistic effect of omeprazole and an anticancer drug in combination, liver cancer ([12]; listed as irinotecan): significantly inhibited; CAKI-1 growth rate average (%) (CAKI-1 cells): 44.74%
